PMC8998904, “Identification and New Indication of Melanin-Concentrating Hormone Receptor 1 (MCHR1) Antagonist Derived from Machine Learning and Transcriptome-Based Drug Repositioning Approaches” (International Journal of Molecular Sciences, 2022)

Key:
hERG channel = target: T1, hERG channel (Homo sapiens, UniProt Q12809); experiment: Patch clamp assay on HEK293-hERG cells; type: cell-based
T1 construct: host or cells: HEK293
Method: (§1) An in vitro time-resolved fluorescence (TRF)-based binding assay for MCHR1 was performed to identify the MCHR1 antagonist from the 19 predicted compounds selected through in silico screening. […] In addition, a patch clamp assay was performed to measure the cardiotoxicity of the five compounds. […] Consequently, of the five compounds, only KRX-104130 and KRX-104165 overcame cardiotoxicity.
Patch clamp assays were performed on HEK293 cells stably expressing the hERG channel (HEK293-hERG cells; Genionics, Switzerland). When the cells were more than 80% confluent, they were freshly dislodged from flasks with 0.05% trypsin–EDTA for 1–2 min, spun down twice at 700× g, suspended into the extracellular solution (in mmol/L at 1.8 × 10^6 per mL: 137 NaCl, 4 KCl, 1 MgCl2, 1.8 CaCl2, 10 HEPES, and 10 glucose, pH 7.4, adjusted with NaOH), and dispensed into a patch clamp plate. The cell density was adjusted to 2–3 × 10^5 cells/mL. After dispensing, the cells were applied to the AutoPatch system (PatchXpress 7000A, Molecular Devices, Sunnyvale, CA, USA). The hERG currents were evoked by two voltage pulses at 3 s interval. The voltage pulse consisted of a 100-ms step to −30 mV, a conditioning prepulse (2 s duration, +25 mV or +45 mV), followed by a test pulse (2 s duration, −30 mV) from a holding potential of −70 mV. After a 3 s interval at −70 mV, a second pulse protocol was applied, consisting of a 100-ms step to −30 mV, a prepulse (2 s duration, +45 mV), followed by a test pulse (2 s duration, −30 mV). Leak currents were linearly subtracted, extrapolating the current elicited by a 100-ms step to −80 mV from a holding potential of −70 mV. The experiment was initiated with a buffer control in the absence of the drug to calculate the IC50. The test compound was applied at low to high concentrations, and the tail current was monitored continuously. The compound effects were tested using six concentrations in three-fold dilutions from 1 to 300 µM.

[1] = target: T2, human recombinant MCH-1 receptor (Homo sapiens, UniProt Q99705); experiment: Time-resolved fluorescence (TRF)-based MCHR1 receptor-binding assay with Eu-MCH; details: for inhibition at 10 µM: TRF MCHR1 binding, read-out: inhibition rate (%) at 10 μM; for IC50: TRF-based binding, 2 nM Eu-MCH
T2 construct: purchased Euroscreen S.A. (PerkinElmer)
T2 sequence (Q99705 whole entry): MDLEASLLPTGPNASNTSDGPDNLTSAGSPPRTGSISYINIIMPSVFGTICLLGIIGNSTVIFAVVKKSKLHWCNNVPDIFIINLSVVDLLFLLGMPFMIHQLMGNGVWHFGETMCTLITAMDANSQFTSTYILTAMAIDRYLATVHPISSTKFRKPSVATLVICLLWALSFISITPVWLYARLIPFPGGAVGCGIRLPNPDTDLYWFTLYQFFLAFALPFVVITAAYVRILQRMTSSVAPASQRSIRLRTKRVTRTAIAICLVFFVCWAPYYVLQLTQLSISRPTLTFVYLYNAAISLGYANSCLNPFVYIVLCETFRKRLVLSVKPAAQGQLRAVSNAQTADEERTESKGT
Method: as §1
The receptor-binding affinities of the generated 19 compounds were determined by time-resolved fluorescence (TRF)-based receptor-binding assays using europium-labeled MCH (Eu-MCH) in 96-well AcroWell™ plates. The MCH labeled with europium at the N-1 position was supplied by the Wallac Labeling Service (PerkinElmer, Inc., Waltham, MA, USA). The human recombinant MCH-1 receptor membrane preparation (MCH-1/SLC1 membrane) was obtained from Euroscreen S.A. (PerkinElmer). The binding assay buffer contained 25 mM 4-(2-hydroxyethyl)-1-piperazineethanesulfonic acid (HEPES; pH 7.4), 5 mM MgCl2, 1 mM CaCl2, and 0.5% bovine serum albumin. Total binding was determined from the binding reaction in the presence of 2 nM Eu-MCH and 5 μg/unit MCH-1 receptor membrane for 90 min. Nonspecific Eu–MCH binding was defined in the presence of 0.5 µM unlabeled MCH. After incubation for 90 min, the plate was washed three times with 300 µL of ice-cold 25 mM HEPES buffer (pH 7.4) in an automatic vacuum filtration system. The Eu was dissociated from the bound ligand by the addition of 150 µL of DELFIA enhancement solution (Perkin Elmer) and incubated for 10 min with shaking. Fluorescence signals from dissociated Eu were measured using a multilabel reader (Envision, PerkinElmer) with an excitation wavelength (340 nm) and an emission wavelength (615 nm).

[2] = Plasma pharmacokinetic profile in mice (I.V. and P.O.); details: for Tolerability / death after administration to mice: pharmacokinetic study; for AUC(0-t): AUC0–t, n=3; for Tolerability / death after administration to mice / AUC(0-t): mice
[3] = tested on: A375, A549, MCF7 and PC3 cells; experiment: mRNA gene expression (transcriptome, DEG) analysis in four cell lines; type: cell-based, human; details: 10 μM, 6 h; common gene of four cell lines
Method: Transcriptome analysis was performed to identify new indications of KRX-104130. For each of the four cell lines, human skin malignant melanoma cells (A375), human lung carcinoma cells (A549), human breast carcinoma cells (MCF7), and human prostate adenocarcinoma cells (PC3), 10 μM of KRX-104130 was administered for 6 h in the control and treatment groups. As an independent experiment was performed three times, considering the error, the average value was used for comparison. The change in gene expression levels was calculated by dividing the […]. Fold change (FC) was expressed as a positive or negative value when the gene expression value of the treatment group was greater or lower than that of the control group, respectively.
Four cell lines were used for the cell culture: A375, A549, MCF7, and PC3, purchased from the American Type Culture Collection (ATCC, Rockville, MD, USA). The A375 and A549 cells were cultured in RPMI-1640 medium supplemented with 10% fetal bovine serum (FBS) and 1% penicillin-streptomycin-glutamine. The MCF7 cells were cultured in Dulbecco’s modified Eagle’s medium (DMEM) with 10% FBS and 1% penicillin-streptomycin-glutamine. The PC3 cells were cultured in RPMI with 10% FBS, 1% penicillin-streptomycin-glutamine, 1 mM sodium pyruvate, and 10 mM HEPES. KRX-104130 was synthesized at the Research Center for Medicinal Chemistry, Korea Research Institute of Chemical Technology (KRICT, Daejeon, Korea).
After releasing the stock, the cells were used in the experiments and cultured for two weeks to stabilize. KRX-104130 was dissolved in dimethylsulfoxide (DMSO) to form a 10 mM stock solution and stored in a deep freezer (−80 °C). Six sheets were seeded in each of the four cell lines, three sheets of DMSO and KRX-104130 (DMSO × 3 and KRX-104130 × 3), and they were stored in an incubator for 24 h. Cells were plated at 1.1375 × 10^6 cells for A375, 1.3 × 10^6 cells for A549, 8.45 × 10^5 cells for MCF7, and 1.496 × 10^6 cells for PC3 under the culture conditions. After 24 h, DMSO and KRX-104130 were diluted 1000-fold in the medium, and the cells were treated with a final concentration of 0.1% DMSO and 10 μM KRX-104130. After 6 h, the medium was removed, and the cells were collected by treatment with 1 mL of TRIzol. After destroying the cells by pipetting, they were stored in a deep freezer (−80 °C).
The total RNA samples were assessed using the Clariom™ S Assay Human Platform. cDNA was synthesized using the GeneChip WT (Whole Transcript) Amplification Kit as described by the manufacturer. The sense cDNA was then fragmented and biotin-labeled with terminal deoxynucleotidyl transferase (TdT) using the GeneChip WT Terminal labeling kit. Approximately 5.5 μg of labeled DNA target was hybridized to the Affymetrix GeneChip Array at 45 °C for 16 h. The hybridized arrays were washed and stained on a GeneChip Fluidics Station 450 and scanned using a GCS3000 scanner. Probe cell intensity data computation and CEL file generation were performed using Affymetrix® GeneChip Command Console® Software version 6.0+ (AGCC, www.thermofisher.com/kr/ko/home/life-science/microarray-analysis/microarray-analysis-instruments-software-services/microarray-analysis-software/affymetrix-genechip-command-console-software.html, accessed on 1 September 2021). The CEL file is a binary format that contains the intensity calculated result for the pixel values of the DAT file and is used to extract normalized intensity to be used for actual analysis in Affymetrix® Power Tools version 2.11.4 (APT, www.thermofisher.com/kr/en/home/life-science/microarray-analysis/microarray-analysis-partners-programs/affymetrix-developers-network/affymetrix-power-tools.html, accessed on 1 September 2021). […]

LDLR [4] = experiment: Western blot assay of LDLR protein expression in HepG2 cells; type: cell-based, human; details: HepG2 cells, 3, 10 and 30 μM
Method: (§2) To validate that KRX-104130 increased the LDLR gene expression through the DEG analysis, LDLR mRNA expression was investigated in KRX-104130–treated HepG2 cells.
The protein expression levels of LDLR in the HepG2 cells were determined by Western blot assay at Cosmo Genetech (Sungsoo, Seoul, Korea). Briefly, cell protein extracts were prepared using radioimmunoprecipitation assay buffer (Thermo Scientific, Pierce, Rockford, IL, USA). Twenty micrograms of protein lysate were separated by electrophoresis on a 10% sodium dodecyl-sulfate (SDS)-polyacrylamide gel electrophoresis (PAGE) gel (Bio-Rad, Hercules, CA, USA) and transferred to a nitrocellulose membrane (Hybond-C Extra; GE Healthcare, Piscataway, NJ, USA). Nonspecific binding was blocked with 5% milk and incubated with 1:1000 primary antibody (LDLR Rabbit-mAb, #ab52818, Abcam) overnight at 4 °C. The secondary antibodies (horseradish peroxidase [HRP]-conjugated mouse anti-rabbit IgG, #SC-2357, Santa Cruz) were diluted 1:3000 in a fresh blocking solution. Protein bands were detected using the SuperSignal West Femto Kit (Thermo Fisher Scientific Inc., Waltham, MA, USA).

[5] = tested on: methionine-choline-deficient (MCD) diet induced NASH mouse model; experiment: MCD diet-induced NASH mouse model; type: in vivo, C57BL/6 mice; details: 30 mg/kg once-daily oral, 4 weeks
Method: In addition, the MCD diet-induced histopathological changes, such as steatosis and fibrosis in liver tissues, were ameliorated by treatment with KRX-104130 (Figure 8D).
Animal studies were carried out following the guidelines for animal care approved by the Institutional Animal Care and Use Committee at the Korea Research Institute of Chemical Technology (approval number: 2020-6A-10-01). Nine-week-old male C57BL/6 mice (Orient Bio, Sungnam, Korea) were randomly divided into three groups: a control group that was fed MCS diet, the NASH model group, and the treatment group that was fed an MCD diet with once-daily oral administration of vehicle (0.5% carboxymethyl cellulose) or 30 mg/kg KRX-104130. After 4 weeks of feeding, the mice were fasted overnight, and blood and tissue samples were obtained for biochemical and histological analyses. Liver TG levels and serum concentrations of liver injury markers, including ALT and AST, were determined using a colorimetric kit (MAK266, Sigma-Aldrich, St. Louis, MO, USA) or biochemical analyzer (AU480, Beckman Coulter, Atlanta, GA, USA), respectively, according to the manufacturer’s instructions. The left lobe of the liver was fixed in 10% neutralized buffered formalin and embedded in paraffin. Histological examination was performed using hematoxylin and eosin (H&E) and picrosirius red staining of 5 µm-thick sections.

LDLR [6] = experiment: RT-qPCR analysis of LDLR mRNA expression in HepG2 cells; type: cell-based, human; details: HepG2 cells, 3, 10 and 30 μM, 24 h
Method: as §2
The mRNA expression levels of LDLR in the HepG2 cells were determined by real-time quantitative PCR (RT-qPCR) at the Cosmo Genetech (Sungsoo, Seoul, Korea). The total RNA was extracted from the cultured cells using an RNeasy mini kit (Qiagen, Valencia, CA, USA), and gene expression was analyzed by RT-qPCR using a Bio-Rad CFX96 system (Hercules, CA, USA). The mRNA expression levels were investigated three times in each sample treated with 0 μM, 3 μM, 10 μM, and 30 μM KRX-104130 for 24 h, and each result was obtained from three independent experiments, for 12 samples. For LDLR, the forward primer was 5′-CTCCCGCCAAGATCAAGAAA-3′, and the reverse primer was 5′-GAGATCTAGGGTGATGCCATTG-3′. The housekeeping gene, glyceraldehyde 3-phosphate dehydrogenase (GAPDH), was used as an internal control. The forward primer was 5′-TTGCCATCAATGACCCCTTCA-3′, and the reverse primer was 5′-CGC CCC ACT TGA TTT TGG A-3′. The PCR conditions for all genes were 40 cycles of pre-denaturation at 95 °C for 3 min, amplification at 62 °C for 30 s, and 95 °C for 10 s. The qPCR was performed using CFX manager (Version 3.1).

T1 sequence (Q12809 whole entry): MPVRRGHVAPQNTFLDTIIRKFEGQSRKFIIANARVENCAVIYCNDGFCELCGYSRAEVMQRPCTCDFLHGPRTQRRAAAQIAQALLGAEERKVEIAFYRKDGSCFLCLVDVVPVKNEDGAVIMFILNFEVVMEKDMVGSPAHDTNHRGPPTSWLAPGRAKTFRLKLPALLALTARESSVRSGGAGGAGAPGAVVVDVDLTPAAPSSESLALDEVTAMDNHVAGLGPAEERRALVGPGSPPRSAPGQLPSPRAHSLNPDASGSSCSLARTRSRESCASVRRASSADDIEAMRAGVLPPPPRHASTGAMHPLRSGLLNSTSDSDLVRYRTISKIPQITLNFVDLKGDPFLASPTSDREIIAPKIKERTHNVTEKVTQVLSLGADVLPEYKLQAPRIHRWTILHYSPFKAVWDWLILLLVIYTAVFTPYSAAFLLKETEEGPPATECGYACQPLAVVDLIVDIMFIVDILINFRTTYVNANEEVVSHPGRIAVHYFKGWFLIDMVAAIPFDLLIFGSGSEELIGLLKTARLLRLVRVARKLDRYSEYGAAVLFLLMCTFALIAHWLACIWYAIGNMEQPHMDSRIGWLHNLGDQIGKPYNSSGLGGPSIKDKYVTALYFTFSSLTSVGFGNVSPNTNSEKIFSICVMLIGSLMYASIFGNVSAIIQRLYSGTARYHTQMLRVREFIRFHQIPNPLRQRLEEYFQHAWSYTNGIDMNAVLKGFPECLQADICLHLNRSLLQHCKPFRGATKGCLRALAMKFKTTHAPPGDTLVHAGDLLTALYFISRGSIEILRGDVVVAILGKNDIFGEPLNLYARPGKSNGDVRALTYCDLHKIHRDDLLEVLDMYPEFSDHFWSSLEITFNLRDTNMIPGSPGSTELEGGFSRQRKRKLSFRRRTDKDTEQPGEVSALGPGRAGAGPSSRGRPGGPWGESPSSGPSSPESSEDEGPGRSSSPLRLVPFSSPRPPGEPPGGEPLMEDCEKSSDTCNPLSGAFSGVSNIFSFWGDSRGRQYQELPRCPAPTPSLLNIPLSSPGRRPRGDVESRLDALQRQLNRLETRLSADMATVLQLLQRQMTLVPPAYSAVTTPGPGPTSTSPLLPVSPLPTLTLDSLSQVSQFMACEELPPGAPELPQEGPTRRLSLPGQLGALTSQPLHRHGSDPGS

## COc1nc2cc(F)c(F)cc2nc1NC(=O)NC1CCN(Cc2cn(C(C)=O)c3ccccc23)CC1 [KRX-104165]
hERG channel
  IC50: > 50 µM
[1]
  inhibition at 10 µM: 94.3%
  IC50: 0.06 µM
[2]
  Tolerability / death after administration to mice: the mouse died immediately after administration

## COc1nc2cc(F)c(F)cc2nc1NC(=O)NC1CCN(Cc2ccc3[nH]ccc3c2)CC1 [KRX-104156]
hERG channel
  IC50: 0.92 µM
[1]
  inhibition at 10 µM: 100%
  IC50: 0.05 µM

## COc1nc2cc(F)c(F)cc2nc1NC(=O)NC1CCN(Cc2cc3ccccc3[nH]2)CC1 [KRX-104130]
[3]
  Fold change (FC) CCNE2: −1.96
  Fold change (FC) DNAJB9: 3.50
  Fold change (FC) HERPUD1: 3.17
  Fold change (FC) HSD17B7: 2.22
  Fold change (FC) INSIG1: 2.85
  Fold change (FC) LDLR: 2.79
  Fold change (FC) MSMO1: 3.09
  Fold change (FC) TIPARP: 3.98
hERG channel
  IC50: 13 µM
[1]
  inhibition at 10 µM: 97.1%
  IC50: 0.02 µM
LDLR [4]
  LDLR protein level: increased in a concentration-dependent manner
[5]; H&E and picrosirius red
  MCD diet-induced histopathological changes (steatosis and fibrosis in liver tissues): ameliorated
[5]; mean ± S.E.M.
  Liver TG levels: 29.73 ± 1.54
  Serum ALT: 163.67 ± 25.85
  Serum AST: 170.5 ± 27.27
LDLR [6]
  LDLR mRNA expression level: LDLR upregulation in a concentration-dependent manner
[2]
  Tolerability / death after administration to mice: without specific abnormalities
[2]; mouse, plasma, iv, 10 mg/kg
  Vd: 14.2 ± 0.72 L/kg
  clearance: 2.21 L/h/kg
  half-life: 5.71 ± 1.03 h
[2]; mouse, plasma, iv, 10 mg/kg, I.V.
  AUC(0-t): 4.55 ± 0.22 µg·h/mL
[2]; mouse, plasma, oral, 20 mg/kg
  bioavailability: 20.3%
[2]; mouse, plasma, po, 20 mg/kg
  Cmax: 0.13 ± 0.05 µg/mL
  Tmax: 6.67 ± 2.31 h
  half-life: 10.2 h
[2]; mouse, plasma, po, 20 mg/kg, P.O.
  AUC(0-t): 1.72 ± 0.85 µg·h/mL

## CCN(CC)CCN(C)c1cnc2cc(NC(=O)c3ccc(-c4ccc(Cl)cc4)cc3)ccc2n1 [KRX-104137]
hERG channel
  IC50: 0.42 µM
[1]
  inhibition at 10 µM: 96%
  IC50: 0.01 µM

## COc1nc2cc(F)c(F)cc2nc1NC(=O)NC1CCN(Cc2ccc3[nH]ncc3c2)CC1 [KRX-104161]
hERG channel
  IC50: 0.18 µM
[1]
  inhibition at 10 µM: 94.8%
  IC50: 0.01 µM
